Patent US6869958B2, “Fused tetrahydropyridine derivatives as matrix metalloproteinase inhibitors” (Warner-Lambert Company, priority 2002, dated 2005)

Target: T1, hMMP-13CD (Homo sapiens, UniProt P45452)
T1 construct: a human MMP-13 catalytic domain (“hMMP-13CD”)
Test: Inhibition of MMP-13 catalytic domain (IC50)
Type: biochemical
Conditions: human MMP-13 catalytic domain
Experimental: Thiopeptolide substrates show virtually no decomposition or hydrolysis at or below neutral pH in the absence of a matrix metalloproteinase enzyme. A typical thiopeptolide substrate commonly utilized for assays is Ac-Pro-Leu-Gly-thioester-Leu-Leu-Gly-OEt. A 100 μL assay mixture will contain 50 mM of N-2-hydroxyethylpiperazine-N′-2-ethanesulfonic acid buffer (“HEPES,” pH 7.0), 10 mM CaCl2, 100 μM thiopeptolide substrate, and 1 mM 5,5′-dithio-bis-(2-nitro-benzoic acid) (DTNB). The thiopeptolide substrate concentration may be varied, for example from 10 to 800 μM to obtain Km and Kcat values. The change in absorbance at 405 nm is monitored on a Thermo Max microplate reader (molecular Devices, Menlo Park, Calif.) at room temperature (22° C.). […]
Some representative compounds of Formula I have been evaluated for their ability to inhibit MMP-13. Inhibitor activity versus other MMPs with the compounds may be determined using, for example, MMP-1FL, which refers to full length interstitial collagenase; MMP-2FL, which refers to full length Gelatinase A; MMP-3CD, which refers to the catalytic domain of stromelysin; MMP-7FL, which refers to full length matrilysin; MMP-9FL, which refers to full length Gelatinase B; MMP-13CD, which refers to the catalytic domain of collagenase 3; and MMP-14CD, which refers to the catalytic domain of MMP-14. […]

- IC50: > 50 µM
SMILES: O=C(O)c1ccc(Cn2ccc3ccc(C#CCn4ccnn4)cc3c2=O)cc1 [4-[1-oxo-7-(3-[1,2,3]triazol-1-ylprop-1-ynyl)-1H-isoquinolin-2-ylmethyl]benzoic acid]
